Literature values, collected in patent US20240050428A1 (Cullgen (Shanghai), Inc., priority 2020, published 2024).

Experiments:
GSPT1 = GSPT1 (Homo sapiens, UniProt P15170+Q96SW2); details: cereblon-dependent; also other targets such as IKZF1 and IKZF3 (Matyskiela, Lu et al. 2016); cited from earlier work
tested cell lines = tested cell lines (Matyskiela, Lu et al. 2016); cited from earlier work

Sequence of GSPT1 (P15170 whole entry): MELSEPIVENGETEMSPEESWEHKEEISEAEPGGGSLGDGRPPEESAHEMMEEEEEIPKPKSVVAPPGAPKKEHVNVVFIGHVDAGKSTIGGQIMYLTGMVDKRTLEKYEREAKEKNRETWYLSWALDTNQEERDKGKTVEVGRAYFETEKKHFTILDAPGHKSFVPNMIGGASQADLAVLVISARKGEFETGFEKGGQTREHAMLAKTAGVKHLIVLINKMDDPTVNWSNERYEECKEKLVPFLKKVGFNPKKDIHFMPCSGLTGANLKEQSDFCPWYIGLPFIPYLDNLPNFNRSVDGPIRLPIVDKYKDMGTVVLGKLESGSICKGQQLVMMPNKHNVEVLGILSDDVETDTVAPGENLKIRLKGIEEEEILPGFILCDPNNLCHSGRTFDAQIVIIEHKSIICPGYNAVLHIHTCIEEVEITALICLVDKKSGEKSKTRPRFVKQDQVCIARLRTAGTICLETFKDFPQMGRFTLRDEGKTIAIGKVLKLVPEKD
Sequence of GSPT1 (Q96SW2 whole entry): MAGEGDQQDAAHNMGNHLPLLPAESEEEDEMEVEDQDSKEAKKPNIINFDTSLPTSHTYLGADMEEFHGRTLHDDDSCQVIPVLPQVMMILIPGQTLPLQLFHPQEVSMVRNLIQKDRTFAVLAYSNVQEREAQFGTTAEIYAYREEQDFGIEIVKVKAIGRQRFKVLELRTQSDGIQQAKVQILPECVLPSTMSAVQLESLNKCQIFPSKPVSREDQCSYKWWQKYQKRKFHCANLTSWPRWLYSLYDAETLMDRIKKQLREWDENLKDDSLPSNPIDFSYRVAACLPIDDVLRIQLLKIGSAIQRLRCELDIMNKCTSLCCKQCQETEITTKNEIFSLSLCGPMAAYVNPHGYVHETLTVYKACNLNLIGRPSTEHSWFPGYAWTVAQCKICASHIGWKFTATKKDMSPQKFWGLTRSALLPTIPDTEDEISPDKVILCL
Sequence of GSPT1 (Q16531 whole entry partner): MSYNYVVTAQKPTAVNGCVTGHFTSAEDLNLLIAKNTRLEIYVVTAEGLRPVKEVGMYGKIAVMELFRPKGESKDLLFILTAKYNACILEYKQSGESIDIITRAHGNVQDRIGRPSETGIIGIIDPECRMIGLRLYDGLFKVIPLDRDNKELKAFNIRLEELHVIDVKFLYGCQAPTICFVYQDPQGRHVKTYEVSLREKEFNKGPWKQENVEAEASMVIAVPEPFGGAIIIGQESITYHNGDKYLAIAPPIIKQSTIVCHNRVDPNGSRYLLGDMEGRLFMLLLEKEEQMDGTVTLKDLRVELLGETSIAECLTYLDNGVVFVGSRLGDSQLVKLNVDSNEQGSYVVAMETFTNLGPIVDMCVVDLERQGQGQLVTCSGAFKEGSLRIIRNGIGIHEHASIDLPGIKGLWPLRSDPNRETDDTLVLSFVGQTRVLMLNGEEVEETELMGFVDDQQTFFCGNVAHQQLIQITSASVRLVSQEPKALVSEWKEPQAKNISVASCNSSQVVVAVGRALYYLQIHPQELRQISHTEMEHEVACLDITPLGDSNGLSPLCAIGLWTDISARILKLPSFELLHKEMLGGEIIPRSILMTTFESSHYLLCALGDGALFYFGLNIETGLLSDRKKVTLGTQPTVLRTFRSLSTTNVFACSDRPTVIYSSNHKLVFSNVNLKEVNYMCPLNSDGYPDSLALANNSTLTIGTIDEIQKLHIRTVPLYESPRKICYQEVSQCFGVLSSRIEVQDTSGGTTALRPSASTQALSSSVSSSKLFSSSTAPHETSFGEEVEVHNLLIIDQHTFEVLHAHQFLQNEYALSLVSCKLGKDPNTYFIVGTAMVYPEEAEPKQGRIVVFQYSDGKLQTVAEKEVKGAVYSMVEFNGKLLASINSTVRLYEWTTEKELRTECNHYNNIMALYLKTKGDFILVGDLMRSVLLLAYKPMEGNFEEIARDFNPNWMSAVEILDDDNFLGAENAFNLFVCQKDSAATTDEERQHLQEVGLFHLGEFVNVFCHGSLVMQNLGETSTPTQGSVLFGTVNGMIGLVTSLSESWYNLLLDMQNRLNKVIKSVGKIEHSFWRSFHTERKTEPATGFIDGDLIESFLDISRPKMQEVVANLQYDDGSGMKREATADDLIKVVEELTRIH

Cc1ccc(NC(=O)NCc2ccc3c(c2)CN(C2CCC(=O)NC2=O)C3=O)cc1Cl (centres unmarked) [CC-885]
degradation of GSPT1 (GSPT1): cereblon-dependent degradation of GSPT1
toxicity in cell lines (tested cell lines): significant toxicity in the vast majority of tested cell lines
